From publication PMC3462775 (PLoS ONE, 2012)
“Also recorded” adds a separate entry of the source.

Experiments:
[1] = test system: elastase; test: Pseudomonas aeruginosa elastase (3 µg, Calbiochem) in 300 µl 20 mM Tris-HCl, 1 mM CaCl2 pH 7.8; details: 37°C, up to 24 h
[2] = test system: aureolysin; test: Staphylococcus aureus aureolysin (3 µg, BioCol GmbH) in 300 µl 20 mM Tris-HCl, 1 mM CaCl2 pH 7.8; details: 37°C, up to 24 h

What does the source list for KKIRVRLSA?
cleaved bond [1]: R6-L7, 5 h; also recorded: S8-A9, 5 h; not cleaved [1]: resisted degradation by elastase for 24 h; cleaved bond [2]: R6-L7, 1h; also recorded: S8-A9, 1h; not cleaved [2]: remaining unaltered after 24 h of incubation
